Literature values as cited in patent US20240156966A1 (priority 2021, published 2024).

System: influenza virus
Conditions: in vivo

SMILES: CCOC(=O)C1=C[C@@H](OC(CC)CC)[C@H](NC(C)=O)[C@@H](N)C1 [Oseltamivir]
- patients with detectable viral RNA: 50.0%
